# Values quoted from earlier work as cited in patent publication US9938200B2, “Methods for improving bud break” (priority 2010, dated 2018).
# System: vines
# Conditions: use over time
smiles,measurement,value
N#CN [hydrogen cyanamide],lowering of the fruitability of vines,20-30 % per year
